The text below walks through data of publication PMC11190964 (Journal of medicinal chemistry, 2023).

The test system of assay [1] is MM.1S cells. In words: Proliferation / growth rate inhibition assay. In kind it is cell-based. The following applies: for antiproliferative activity / toxicity, single agent: comparator inhibitors, single-agent treatment.
Assay [2] addresses T1, JNK2 (Homo sapiens, UniProt P45984). In words: PhosphoSens kinetic assay. In kind it is biochemical. The conditions noted are these: JNK1 and JNK2.
Target sequence in this assay (P45984 whole entry): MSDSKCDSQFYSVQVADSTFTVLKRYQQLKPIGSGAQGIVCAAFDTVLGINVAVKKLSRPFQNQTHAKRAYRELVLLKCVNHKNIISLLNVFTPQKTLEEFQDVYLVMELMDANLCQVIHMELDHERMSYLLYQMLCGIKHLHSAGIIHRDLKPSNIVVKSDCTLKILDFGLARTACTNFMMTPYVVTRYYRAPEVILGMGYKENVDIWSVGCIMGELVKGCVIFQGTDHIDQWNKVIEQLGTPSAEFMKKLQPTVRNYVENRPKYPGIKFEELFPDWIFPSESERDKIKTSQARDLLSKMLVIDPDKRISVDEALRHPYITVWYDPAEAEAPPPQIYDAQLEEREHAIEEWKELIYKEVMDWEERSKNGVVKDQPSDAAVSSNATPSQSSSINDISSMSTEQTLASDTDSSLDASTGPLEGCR
Assay [3] concerns the target T1, JNK2. Nature of the assay: Pull-down competition assay with biotin-JNK-IN-7, JNK2. In kind it is cell-based. The following applies: MM.1S cells, 6 h; both JNK1 and JNK2.
Target sequence in this assay (P45984 whole entry): as above
The subject of assay [4] is Bortezomib-resistant ANBL6 cells. In words: Antiproliferative assay, Bortezomib-resistant ANBL6. In kind it is cell-based. The following applies: parental ANBL6 and Bortezomib-resistant ANBL6 cells.
Assay [5] concerns MM.1S cells. In words: Apoptosis. In kind it is cell-based. The following applies: PARP cleavage, caspase 3 cleavage, Annexin V/PI staining.
For assay [6], the target named is T1, JNK2. In words: Z′-Lyte fixed time point kinase assay, JNK2. The conditions noted are these: fixed time point biochemical kinase assay.
Target sequence in this assay (P45984 whole entry): as above
In assay [7] the test system is panel of more than 400 kinases. Nature of the assay: Kinome-wide selectivity panel. The conditions noted are these: strong binding to EGFR, CK1, DDR1, CDK7, Aurora A and B.
Another assay deals with MDA-MB-231 cells. Nature of the assay: Vacuole formation. The format is cell-based.
The target in the next assay is PIKFYVE (Homo sapiens, UniProt Q9Y2I7). In words: PIKFYVE NanoBRET target engagement assay. The format is cell-based. The following applies: transfected HEK293T cells, 3 h.
PIKFYVE, sequence (Q9Y2I7 whole entry): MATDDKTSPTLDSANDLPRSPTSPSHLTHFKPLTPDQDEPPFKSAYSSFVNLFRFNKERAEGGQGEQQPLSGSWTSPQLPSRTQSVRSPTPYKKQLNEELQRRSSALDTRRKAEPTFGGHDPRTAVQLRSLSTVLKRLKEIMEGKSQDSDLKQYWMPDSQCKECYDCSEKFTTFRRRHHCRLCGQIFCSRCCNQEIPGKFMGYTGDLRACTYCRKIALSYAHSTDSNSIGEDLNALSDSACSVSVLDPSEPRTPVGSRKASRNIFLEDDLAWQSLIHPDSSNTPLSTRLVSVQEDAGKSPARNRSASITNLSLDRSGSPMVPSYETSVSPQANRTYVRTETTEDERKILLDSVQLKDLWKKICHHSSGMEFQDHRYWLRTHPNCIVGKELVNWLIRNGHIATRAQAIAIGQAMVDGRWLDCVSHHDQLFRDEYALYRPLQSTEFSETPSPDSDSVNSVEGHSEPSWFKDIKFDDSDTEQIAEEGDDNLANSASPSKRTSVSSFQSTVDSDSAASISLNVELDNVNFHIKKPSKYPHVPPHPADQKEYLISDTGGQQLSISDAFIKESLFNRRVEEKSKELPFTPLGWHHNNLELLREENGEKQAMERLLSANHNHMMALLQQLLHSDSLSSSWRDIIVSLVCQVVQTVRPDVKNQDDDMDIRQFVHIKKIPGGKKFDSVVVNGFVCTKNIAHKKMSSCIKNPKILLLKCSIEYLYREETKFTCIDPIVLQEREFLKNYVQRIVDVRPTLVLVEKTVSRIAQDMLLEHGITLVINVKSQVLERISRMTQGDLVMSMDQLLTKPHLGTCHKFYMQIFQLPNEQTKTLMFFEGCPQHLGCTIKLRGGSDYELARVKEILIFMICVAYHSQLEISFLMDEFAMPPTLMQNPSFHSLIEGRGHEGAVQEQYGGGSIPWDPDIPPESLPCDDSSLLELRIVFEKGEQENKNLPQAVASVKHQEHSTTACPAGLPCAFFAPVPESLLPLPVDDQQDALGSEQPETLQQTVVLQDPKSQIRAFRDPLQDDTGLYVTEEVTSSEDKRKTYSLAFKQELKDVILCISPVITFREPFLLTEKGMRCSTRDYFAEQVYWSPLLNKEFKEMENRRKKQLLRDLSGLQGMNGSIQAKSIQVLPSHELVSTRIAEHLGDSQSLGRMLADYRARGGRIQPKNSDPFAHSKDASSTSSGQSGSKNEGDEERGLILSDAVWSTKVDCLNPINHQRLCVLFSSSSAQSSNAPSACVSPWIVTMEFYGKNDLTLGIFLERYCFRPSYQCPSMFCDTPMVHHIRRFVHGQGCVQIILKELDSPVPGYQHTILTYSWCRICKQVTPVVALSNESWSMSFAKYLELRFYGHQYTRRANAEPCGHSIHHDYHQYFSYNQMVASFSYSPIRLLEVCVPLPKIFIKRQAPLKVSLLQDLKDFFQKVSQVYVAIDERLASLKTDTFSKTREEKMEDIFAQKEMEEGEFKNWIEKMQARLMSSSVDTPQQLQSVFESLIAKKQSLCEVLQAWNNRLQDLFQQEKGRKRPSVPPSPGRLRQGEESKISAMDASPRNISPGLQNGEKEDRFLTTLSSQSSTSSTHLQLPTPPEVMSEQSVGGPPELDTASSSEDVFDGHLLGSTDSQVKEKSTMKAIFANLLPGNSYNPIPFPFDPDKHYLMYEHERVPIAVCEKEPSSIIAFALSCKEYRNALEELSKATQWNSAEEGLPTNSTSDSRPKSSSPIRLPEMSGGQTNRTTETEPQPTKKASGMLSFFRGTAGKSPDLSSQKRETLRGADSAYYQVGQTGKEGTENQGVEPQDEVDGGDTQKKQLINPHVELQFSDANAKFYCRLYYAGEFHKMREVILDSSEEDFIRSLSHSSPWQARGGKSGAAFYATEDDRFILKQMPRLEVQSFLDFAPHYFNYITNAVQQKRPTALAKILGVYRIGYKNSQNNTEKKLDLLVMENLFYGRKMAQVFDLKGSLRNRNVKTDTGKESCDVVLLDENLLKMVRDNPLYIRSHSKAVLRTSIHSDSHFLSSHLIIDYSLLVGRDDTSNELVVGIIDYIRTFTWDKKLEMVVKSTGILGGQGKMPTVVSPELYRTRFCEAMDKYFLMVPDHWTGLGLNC
The target in assay [8] is T1, JNK2. Nature of the assay: Mass labeling of recombinant JNK2 protein. The format is binding. The conditions noted are these: room temperature, 60 min incubation; trypsin digest, CE-MS/MS.
Target sequence in this assay (P45984 4-364): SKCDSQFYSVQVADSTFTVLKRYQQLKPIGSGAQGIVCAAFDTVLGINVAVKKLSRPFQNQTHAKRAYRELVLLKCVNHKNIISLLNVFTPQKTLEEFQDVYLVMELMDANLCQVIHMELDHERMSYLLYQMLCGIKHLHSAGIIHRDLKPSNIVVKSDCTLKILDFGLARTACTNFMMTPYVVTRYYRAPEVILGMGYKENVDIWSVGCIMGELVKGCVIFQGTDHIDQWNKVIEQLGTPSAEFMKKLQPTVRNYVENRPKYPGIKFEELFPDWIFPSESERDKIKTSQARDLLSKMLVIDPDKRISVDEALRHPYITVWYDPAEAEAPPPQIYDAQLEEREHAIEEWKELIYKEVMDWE
Another assay has as its target JNK1 (Homo sapiens, UniProt P45983). Nature of the assay: JNK1 NanoBRET target engagement assay. The following applies: HEK293T cells; compared with JNK-IN-8. In kind it is cell-based. Background: Bioluminescence resonance energy transfer reports proximity on the nanometre scale.
Assay [9] has as its system HAP1 parental cells and JNK2-knockout cell lines. In words: Antiproliferative activity in HAP1 parental and JNK2-knockout cells. The format is cell-based.

JNK1, sequence (P45983 whole entry): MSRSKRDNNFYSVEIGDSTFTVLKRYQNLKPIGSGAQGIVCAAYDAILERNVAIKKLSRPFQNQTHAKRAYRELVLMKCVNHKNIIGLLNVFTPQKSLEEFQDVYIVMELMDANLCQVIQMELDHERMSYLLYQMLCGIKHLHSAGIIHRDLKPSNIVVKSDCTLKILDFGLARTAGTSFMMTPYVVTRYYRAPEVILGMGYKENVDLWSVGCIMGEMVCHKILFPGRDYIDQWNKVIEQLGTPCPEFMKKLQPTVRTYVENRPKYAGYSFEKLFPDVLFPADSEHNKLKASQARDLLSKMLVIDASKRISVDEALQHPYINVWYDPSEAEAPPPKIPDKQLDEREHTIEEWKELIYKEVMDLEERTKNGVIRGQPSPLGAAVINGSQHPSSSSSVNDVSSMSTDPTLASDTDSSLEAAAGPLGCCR

As for `O[C@H]1CC[C@H](Nc2ncc3nc(Nc4c(F)cc(F)cc4F)n([C@H]4CCOC4)c3n2)CC1` [CC930], in the assay on MM.1S cells [1] (10 μM pretreatment, MM.1S cells), the “protection from YL5084-mediated cell killing” value is “did not protect”. Moreover, in the assay on MM.1S cells [1], the “antiproliferative activity / toxicity, single agent” value is recorded as “did not exhibit antiproliferative activity even at micromolar concentrations”.
Regarding `Cc1cc(NC(=O)c2cccc(NC(=O)/C=C/CN(C)C)c2)ccc1Nc1nccc(-c2cccnc2)n1` [JNK-IN-8], the “potency JNK2 versus JNK1 in kinetic assay” value on JNK2 [2] is “almost equipotent against both”. The “engagement of JNK1 and JNK2 in pull down” value on JNK2 [3] was “engaged both JNK1 and JNK2 at the same concentration”. The “antiproliferative effect in ANBL6 cells” value in assay [4] was “minimal effect”. In addition, the “induction of apoptosis” value with MM.1S cells [5] is given as “failed to induce apoptotic cell death to the same level”.
As for `CN(C)C/C=C/C(=O)Nc1ccc(C(=O)Nc2cccc(Nc3nccc(-c4c(-c5ccccc5)nn5ccccc45)n3)c2)cc1` [THZ-3–60-1], the “selectivity JNK2 versus JNK1” value at JNK2 [6] is “exhibited selectivity for JNK2 versus JNK1”. Moreover, the “kinome-wide selectivity” value in [7] was “poor kinome-wide selectivity”.
For the compound `O=c1ncn2nc(Sc3ccc(F)cc3F)ccc2c1-c1c(Cl)cccc1Cl` [VX745], in the assay on MM.1S cells [1], the “antiproliferative activity / toxicity, single agent” value is listed as “not toxic”.
For `CN(C)C/C=C/C(=O)Nc1ccc(C(=O)N2CC[C@H](Nc3nccc(-c4c(-c5ccccc5)nn5ccccc45)n3)C2)cc1` [YL2056, (S,E)-4-(Dimethylamino)-N-[4-(3-{[4-(2-phenylpyrazolo[1,5-a]pyridin-3-yl)pyrimidin-2-yl]amino}pyrrolidine-1-carbonyl)phenyl]but-2-enamide], the “vacuole formation” value with MDA-MB-231 cells (MDA-MB-231, phenotype of PIKFYVE inhibition) is “induced”. The “PIKFYVE binding in NanoBRET” value on PIKFYVE is on record as “binds to PIKFYVE more strongly than its reversible counterpart”. On JNK2 [8], the “covalent modification site on JNK2” value was “exclusive modification on JNK2 Cys116”.
Take `C[C@H]1CN(C(=O)c2ccc(NC(=O)/C=C/CN(C)C)cc2)C[C@H]1Nc1nccc(-c2c(-c3ccccc3)nn3ccccc23)n1` [YL5084, (E)-4-(Dimethylamino)-N-[4-((3S,4S)-3-methyl-4-{[4-(2-phenylpyrazolo[1,5-a]pyridin-3-yl)pyrimidin-2-yl]amino}pyrrolidine-1-carbonyl)phenyl]but-2-enamide]: the “GR50 (antiproliferative)” value in the assay with MM.1S cells [1] (multiple myeloma (MM) cell lines, 72 h) lay in the range of 200 to 300 nM. The “vacuole formation” value in the assay on MDA-MB-231 cells (up to a concentration of 4 μM) was “did not induce vacuole formation”. Moreover, the “JNK1 engagement in NanoBRET” value on JNK1 is “significantly less engagement of JNK1”. The “induction of apoptosis” value in the assay with MM.1S cells [5] was “induced apoptosis”. The “antiproliferative activity, parental vs JNK2-knockout” value in [9] is “equipotent antiproliferative activity”.
Take `C[C@H]1CN(C(=O)c2ccc(NC(=O)CCCN(C)C)cc2)C[C@H]1Nc1nccc(-c2c(-c3ccccc3)nn3ccccc23)n1` [YL5084R, 4-(Dimethylamino)-N-[4-((3S,4S)-3-methyl-4-{[4-(2-phenylpyrazolo[1,5-a]pyridin-3-yl)pyrimidin-2-yl]amino}pyrrolidine-1-carbonyl)phenyl]butanamide]: the “fold weaker antiproliferative activity than YL5084” value in the assay with MM.1S cells [1] (multiple myeloma (MM) cell lines, GR50) amounted to 15 fold.
